What was measured:
[1] = test system: HCV Conl subgenomic replicon (GS4.1 cells); assay: HCV replicon assay (NS4A ELISA, HCV ELISA 2); type: cell-based; details: Hepatitis C virus; GS4.1 cells, 72 hours, NS4A ELISA; read-out: HCV ELISA 2 EC50
Method: (§1) Huh-7 cells containing HCV Conl subgenomic replicon (GS4.1 cells), (C. Seeger; Fox Chase University, Philadelphia, Pa., USA), are grown in Dulbecco's Modified Eagle Medium (DMEM) supplemented with 10% fetal bovine serum (FBS), 2 mM L-glutamine, 110 mg/L sodium pyruvate, 1×non-essential amino acids, 100 U/mL penicillin-streptomycin and 0.5 mg/mL G418 (Invitrogen). For dose-response testing, the cells are seeded in 96-well plates at 7.5×10^3 cells/well in a volume of 50 μL and incubated at 37° C./5% CO2. Three hours after plating, 50 μL of ten 2-fold serial dilutions of compounds (highest concentration, 75 μM) are added and cell cultures were incubated at 37° C./5% CO2 in the presence of 0.5% DMSO. Alternatively, compounds are tested at a single concentration of 15 μM. In all cases, Huh-7 cells lacking the HCV replicon served as negative control. The cells are incubated in the presence of compounds for 72 hours after which they were monitored for expression of the NS4A protein by enzyme-linked immunosorbent assay (ELISA). For this, the plates were then fixed for 1 min with 1:1 acetone:methanol, washed twice with phosphate-buffered saline (PBS), 0.1% Tween 20, blocked for 1 hour at room temperature with TNE buffer containing 10% FBS and then incubated for 2 h at 37° C. with the anti-NS4A mouse monoclonal antibody A-236 (ViroGen) diluted in the same buffer. After washing three times with PBS, 0.1% Tween 20, the cells are incubated 1 hour at 37° C. with anti-mouse immunoglobulin G-peroxidase conjugate in TNE, 10% FBS. After washing as described above, the reaction is developed with O-phenylenediamine (Zymed). The reaction is stopped after 30 minutes with […] and the absorbance is read at 492 nm using a Sunrise Tecan spectrophotometer. EC50 values are determined from the % inhibition versus concentration data using a sigmoidal non-linear regression analysis based on four parameters with Tecan Magellan software. […] For cytotoxicity evaluation, GS4.1 cells are treated with compounds as described above and cellular viability was monitored using a Cell Titer 96 AQueous One Solution Cell Proliferation Assay (Promega). CC50 values are determined from the % cytotoxicity versus concentration data with Tecan Magellan software as described above.

[2] = Cytotoxicity evaluation in GS4.1 cells (Cell Titer 96 AQueous One Solution); type: cell-based; details: human, 72 hours
Method: as §1

[3] = Pharmacokinetic (PK) studies, oral, rat; type: in vivo; details: orally administered
Method: (§2) Methods: For pharmacokinetic (PK) and toxicology studies, B102 were orally administered to rats or monkeys at doses from 20 to 300 mg/kg/day up to 14 days. Hepatic nucleoside TP levels were determined by LC-MS/MS. Compounds (10 mg/kg/day) were administered once daily by oral gavage for 4 days in chimpanzees chronically infected with HCV genotype 1. HCV viral loads were monitored before, during and after treatment by quantitative RT-PCR.

[4] = Pharmacokinetic (PK) studies, oral, monkey; type: in vivo; details: orally administered
Method: as §2

HCV genotype 1 = assay: Antiviral activity in chimpanzees chronically infected with HCV genotype 1; type: in vivo; details: 4 days; for Mean viral load reduction: HCV-infected chimpanzees, 10 mg/kg/day oral once daily
Method: as §2

[5] = test system: wild-type HBV (secreted virions); assay: Anti-HBV activity in HBV virions via endogenous polymerase assay (EPA); type: cell-based; details: Hepatitis B virus, read-out: Virion EC50 (μM)
Method: (§3) Compounds were tested in an anti-HBV assay. Determination of anti-HBV activity in HBV virions and nucleocapsids via endoenous polymerase assays (EPA)
(§4) • 1. 12-well collagen-I coated plates were seeded with producer cells expressing wild-type HBV at a density of 0.5-1×10^6 cells per well in 2 ml growth/selection media. • 2. Drug stock solutions were made up freshly in 100% DMSO as 200× stocks. Five additional 4-fold dilutions were prepared from these 200× stock in 100% DMSO. For each experiment, 4 aliquots of each drug dilution series were stored at −20° C. until used. • 3. Once cells reached confluency (1 day after cells were seeded), drug treatment was initiated by adding 10 μl of drug dilution into 2 ml of fresh growth/selection media. […] The no-drug control wells received only 10 μl of DMSO in fresh media. • 4. Cells were treated every-other-day with 2 ml of fresh drug/medium for a total of 8 days. Cell lysates were then collected on day 10 and subjected to EPA analysis as described below. Preparation of Nucleocapsid-Containing Lysates for Epa Analysis • 1. Cells were grown for 3 to 4 days in 12-well collagen-I coated plates until confluent. • 2. Media was carefully aspirated and the cell monolayers were rinsed once with 1 ml of PBS. • 3. One ml of lysis buffer (50 mM Tris-HCl pH 7.5/150 mM NaCl/5 mM MgCl2/0.2% NP-40) was added to each well. Plates were stored on ice for 30 min to 4 h. • 4. Lysed cells were transferred to 1.5 ml-microfuge tubes. • 5. Lysates were clarified by spinning at 14,000 rpm for 5 min at room temperature. • 6. Clarified lysates were transferred to fresh tubes and immediately frozen on dry-ice, then stored at −80° C. until endogenous polymerase assays were performed as described below. Preparation of Secreted Virions from Supernatant for Epa Analysis • 1. Cells were grown for 3 to 4 days in 12-well collagen-I coated plates until confluent. • 2. Media was carefully aspirated and transferred to 1.5 ml-microfuge tubes. • 3. Supernatants were clarified by spinning at 14,000 rpm for 5 min at room temperature. • 4. Clarified supernatants were transferred to fresh tubes and immediately frozen on dry-ice, then stored at −80° C. until endogenous polymerase assays were performed essentially as described below. Endogenous Polymerase Assay (EPA) of Cell Lysates and Supernatants • 1. EPAs were performed essentially as described by Seifer et al (1998). Intracellular HBV nucleocapsids were immunoprecipitated from the cytoplasmic lysates overnight at 4° C. with a polyclonal rabbit anti-HBcAg antibody and immobilized on protein A sepharose CL-4B beads. Secreted virions were immunoprecipitated from clarified cell supernatants overnight at 4° C. with a monoclonal mouse anti-LS antibody (MA18/7) in the absence of detergent. • 2. Following 3 washes of the immobilized capsids or virions with 1 ml of EPA wash buffer (75 mM NH4Cl, 50 mM Tris-HCl pH 7.4, 1 mM EDTA), endogenous polymerase reactions were initiated by adding 50 μl of detergent-containing EPA cocktail (50 mM Tris-HCl pH7.4, 75 mM NH4Cl, 1 mM EDTA, 20 mM MgCl2, 0.1 mM β-ME, 0.5% NP-40, 100 μM cold dGTP, TTP, dCTP, and 50 nM ^33P-dATP) and incubated overnight at 37° C. The detergent is required to strip the outer envelope from immunoprecipitated virions as well as to enhance permeability of the nucleocapsids. • 3. Following digestion with 1 mg/ml of proteinase K for 1 h at 37° C., endogenously ^33P-labeled HBV DNA was liberated via phenol/chloroform extraction. • 4. The nucleic acids were precipitated with 1 volume of 5M NH4-acetate and 2.5 volumes of 100% EtOH, and then separated on a 1% native agarose gel in Tris-borate-EDTA buffer. • 5. Gels were blotted onto positively charged nylon membrane overnight at room temperature via capillary transfer in 0.4 N NaOH. • 6. Dried membranes were exposed to a Phosphorlmager screen (GE Healthcare) overnight at room temperature, then scanned (Storm 860, GE Healthcare) and quantitated with ImageQuant software (GE Healthcare). • 7. […]

[6] = test system: wild-type HBV (intracellular nucleocapsids); assay: Anti-HBV activity in HBV nucleocapsids (RI) via endogenous polymerase assay (EPA); type: cell-based; details: Hepatitis B virus; wild-type HBV producer cell line, intracellular nucleocapsids, EPA; read-out: RI EC50
Method: as §3, §4

HBV wt (HepG2) = assay: Anti-HBV activity in HBV-infected HepG2 cells; type: cell-based; details: N=3
Method: The compound of Example 1 (NM 204) (Hydroxy-tBuSATE N-benzylphosphoramidate derivative of L-ddA) (A550) was contacted with HBV-infected HepG2 cells. EC50 values were measured according to standard techniques.

[7] = test system: endogenous HBV polymerase activity; assay: HBV drug susceptibility assay (EPA read-out); type: cell-based; details: for SI: CC50/EC50, HBV Cell Assay (EPA Read-out); for EC50: Hepatitis B virus, HBV Cell Assay (EPA Read-out), collagen plates, read-out: Antiviral Activity (EC50 in μM)
Method: • a) Collagen-I coated cell culture plates were seeded with cells at a density of 0.25-0.5×10^6 cells per well in 2 ml of growth/selection media. • b) Drug stock solutions were made up freshly in 100% DMSO as 200× stocks. Seven 4-fold dilutions of test compound were prepared ranging from 2.5 μM to 0.0006 μM (final). Master drug dilutions were divided into 4 aliquots, and then stored at −20° C. until used. • c) One day after cells were seeded, drug treatments were initiated by adding 10 μl of drug dilution along with 2 ml of fresh growth/selection media. […] The no-drug control wells received 10 μl of DMSO in fresh media. • d) Cells were treated every-other-day with 2 ml of fresh drug combinations/medium for a total of 8 days. Cell lysates were then collected on day 10 as described below and endogenous polymerase assay were performed. Preparation of Nucleocapsid-Containing Lysates for Epa Analysis • a) Two days after the final drug treatment, cells were harvested. • b) Media was carefully aspirated and the cell monolayers were rinsed once with 1 ml of PBS. • c) 1 ml of lysis buffer (50 mM Tris-HCl pH 7.5/150 mM NaCl/5 mM MgCl2/0.2% NP-40) was added to each well. The detergent is required to strip the outer envelope from virions and to allow capture of the inner nucleocapsids. Plates were kept on ice for >30 min. • d) Lysed cells were transferred to 1.5 ml-microfuge tubes. • e) Lysates were clarified by spinning at room temperature for 5 min at 14,000 rpm. • f) Clarified lysates were transferred to fresh tubes and immediately frozen on dry-ice, then stored at −80° C. until endogenous polymerase assays can be performed as described below. Endogenous Polymerase Assay (EPA) of Cell Lysates • a) EPAs were performed essentially as described in Seifer, et al (1998). J. Virol. 72: 2765-2776. […] The detergent is required to enhance permeability of the nucleocapsids. • d) Following digestion with 1 mg/ml of Proteinase K for 1 hour at 37° C., endogenously ^33P-labeled HBV DNA was liberated via phenol/chloroform extraction. • e) The nucleic acids were then precipitated with one volume of 5 M NH4-acetate and 2.5 volumes 100% EtOH, and separated on a 1% native agarose gel in Tris-borate buffer. • f) Gels were blotted onto positively charged nylon membrane overnight at room temperature via capillary transfer in 0.4 N NaOH. • g) Dried membranes were exposed to a phosphoimager screen (GE Healthcare) overnight at room temperature, then scanned (Storm 860, GE Healthcare) and quantitated with ImageQuant software (GE Healthcare). • h) Dose-response curves were generated using XLfit 4.1 software. The mean effective drug concentrations that inhibit endogenous HBV polymerase activity by 50% were calculated from several independent experiments. Cytotoxicity Determination

[8] = In vitro cytotoxicity assay in HepG2 cells (MTS); type: cell-based; details: human, collagen plates
Method: A standard in vitro cytotoxicity assay was performed in HepG2 cells. Cells were exposed to drug for 9 days. Cell viability was determined via MTS staining using a CellTiter 96 Aqueous One Solution cell proliferation assay according to the manufacturer's instructions. • a) HepG2 cells were seeded in 96-well tissue culture plates in 100 μl fresh growth media at 7×10^3 cells per well. • b) Drug stock solutions were made up in 100% DMSO as 400× stock solutions and stored at −20° C. until used. • c) Four hours after cells were plated the drug dilutions were prepared and then added to the cells. Cells received up to 100 μM of drug in a total of 200 μl of fresh growth media containing 0.25% DMSO. Control wells received growth media with 0.25% DMSO growth media. Plates were incubated at 37° C., 5% CO2. • d) Cells were treated every-other-day with fresh growth media and fresh drug dilutions for a total of 8 days as described above. • e) On day 9, cell viability of HepG2 cells was determined by adding 20 μl of MTS CellTiter 96 Aqueous One Solution.

In the case of CC(C)(CO)C(=O)SCCOP(=O)(NCc1ccccc1)OC[C@H]1O[C@@H](n2ccc(N)nc2=O)[C@](C)(O)[C@@H]1O (mixture of isomers) [Example B102, Hydroxy-tBuSATE N-benzylphosphoramidate Derivative of 2′-C-methylcytidine], the EC50 [1] is reported as 1 to 10 µM, the CC50 [2] is reported as > 75 µM and the first-pass hepatic extraction [3] is reported as > 95%. The systemic exposure [3] was < 1%, the first-pass hepatic extraction [4] was > 95% and the systemic exposure [4] was < 1%. The “Mean viral load reduction” value (HCV genotype 1) was 1.5 log 10 and the “lab abnormalities or evidence of toxicities” value (HCV genotype 1; chimpanzees, 10 mg/kg/day oral) was “No lab abnormalities or evidence of toxicities were observed”.

With CC(C)(CO)C(=O)SCCOP(=O)(NCc1ccccc1)OC[C@@H]1CC[C@H](n2cnc3c(N)ncnc32)O1 (stereo partly shown) [C819 (NM 177)] the EC50 [5] was 1 to 10 µM and the EC50 [6] was 1 to 10 µM.

Compound CC(C)(CO)C(=O)SCCOP(=O)(NCc1ccccc1)OC[C@H]1CC[C@@H](n2cnc3c(N)ncnc32)O1 (stereo partly shown) [Ex 1 (A550)] has an EC50 (HBV wt (HepG2); Hepatitis B virus) of 0.062 ± 0.018 µM.

For CC(C)(CO)C(=O)SCCOP(=O)(COCCn1cnc2c(N)ncnc21)NCc1ccccc1 (stereo not shown) [Example B261, Hydroxy-tBuSATE N-benzylphosphonamidate Derivative of PMEA], the SI [7] was 1,225, the EC50 [7] was 0.016 ± 0.004 µM and the CC50 at 9 days [8] was 19.6 µM. For the same compound, the EC50 [6] was < 1 µM.

Compound Nc1ccn([C@@H]2CS[C@H](CO)O2)c(=O)n1 [Lamivudine, lamivudine] has an EC50 (HBV wt (HepG2); Hepatitis B virus) of 0.022 ± 0.007 µM.

With Nc1ncnc2c1ncn2[C@@H]1CC[C@H](CO)O1 [LddA, L-ddA] the EC50 (HBV wt (HepG2)) was > 10 µM.

In the case of Nc1ncnc2c1ncn2CCOCP(=O)(O)O [PMEA], the SI [7] is reported as >310, the EC50 [7] is reported as 0.328 ± 0.082 µM and the CC50 at 9 days [8] is reported as > 100 µM. The EC50 [6] was < 1 µM.

With CC(C)[C@H](N)C(=O)O[C@@H]1[C@@H](CO)O[C@@H](n2ccc(N)nc2=O)[C@]1(C)O [valopicitabine, reference compound] the “Mean viral load reduction” value (HCV genotype 1) was 0.7 log 10.
